Where a name gives a salt, the structure may show the parent alone.
Target: T1, DltA enzyme (Streptococcus agalactiae serotype III, UniProt Q8VM67)
T1 construct: His-tag (from pET100 vector) (N); made in house; host or cells: E. coli BL21 (DE3) Star
T1 sequence (Q8VM67 1-511): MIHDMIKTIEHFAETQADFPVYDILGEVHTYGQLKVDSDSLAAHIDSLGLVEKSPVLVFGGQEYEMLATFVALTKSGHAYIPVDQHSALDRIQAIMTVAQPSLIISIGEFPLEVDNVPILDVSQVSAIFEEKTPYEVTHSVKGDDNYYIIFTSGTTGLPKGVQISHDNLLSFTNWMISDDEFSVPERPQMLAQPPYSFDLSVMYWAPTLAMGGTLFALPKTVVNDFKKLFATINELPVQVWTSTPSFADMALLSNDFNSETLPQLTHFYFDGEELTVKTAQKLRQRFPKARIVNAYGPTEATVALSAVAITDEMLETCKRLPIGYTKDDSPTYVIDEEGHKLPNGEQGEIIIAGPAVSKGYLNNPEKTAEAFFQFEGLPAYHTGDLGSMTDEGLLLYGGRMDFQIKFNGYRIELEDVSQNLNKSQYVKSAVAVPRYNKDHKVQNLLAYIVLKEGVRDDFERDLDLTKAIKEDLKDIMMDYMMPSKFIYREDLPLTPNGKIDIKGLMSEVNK
Test: DltA HTS assays (luminescent / fluorescent), inhibition of DltA enzymatic activity in vitro
Assay type: biochemical, S. agalactiae
Conditions: not given
Description: The compounds effect on DltA enzyme has been based on the measure of the inhibition of DltA activity in vitro.
To this end, a recombinant protein Dlta was expressed and purified after cloning of the gene of S. agalatiae as described below:
Methods 1: DltA HTS Assays
The assay described below makes use of dithiothreitol (DTT) instead of DltC as reactive thiol in the catalyzed reaction. In fact, the inventors have shown that DTT, but also Coenzyme A and N-Acetylcysteamine are all thiols able to replace efficiently DltC. In addition, contrary to the prior art, radioactivity is not used: all the assays are based either on luminescent ATP detection, or on fluorescent AMP detection. They are easily amenable to miniaturized formats and fast readouts as required by HTS.
The assay buffer “AB” contains 50 mM Hepes pH8.0, 10 mM MgCl2, 50 mM KCl, 0.012% Triton-X100. The following components are added in a white polystyrene Costar plate up to a final volume of 30 μL: 3 μL DMSO, or inhibitor dissolved in DMSO and 27 μL DltA enzyme and DTT in AB. After 30 min of pre-incubation at room temperature, 30 μL of Substrates mix in AB are added in each well to a final volume of 60 μL. This reaction mixture is then composed of 10 nM DltA (produced in house from S. agalactiae), 0.5 mM D-Alanine (Sigma), 0.5 μM ATP (Sigma) and 1 mM DTT (Biochemika) in assay buffer. After 90 min of incubation at room temperature, 30 μL of the revelation mix are added to a final volume of 90 μL, including the following constituents at the respective final concentrations: 2 nM luciferase (Sigma), 30 μM D-luciferin (Sigma), 100 μM N-acetylcysteamine (Aldrich). Luminescence intensity is immediately measured on an Analyst-HT (Molecular Devices) and converted into inhibition percentages. For IC50 (Inhibitory Concentration 50%) determinations, the inhibitor is added at 6 to 10 different concentrations, and the related inhibitions are fitted to a classical langmuir equilibrium model using XLFIT (IDBS).
The assay buffer “AB” contains 50 mM Hepes pH8.0, 10 mM MgCl2, 50 mM KCl, 0.012% Triton-X100. The following components are added in a black polystyrene Costar plate up to a final volume of 50 μL: 5 μL DMSO, or inhibitor dissolved in DMSO and 45 μL DltA enzyme and DTT in AB. After 30 min of pre-incubation at room temperature, 50 μL of Substrates-revelation mix in AB are added in each well to a final volume of 100 μL. This reaction mixture is then composed of 5 nM DltA (produced in house from S. agalactiae), 0.5 mM D-Alanine (Sigma), 10 μM ATP (Sigma), 1 mM DTT (Biochemika), 10 nM Adenylate kinase (produced in house), 5 u/mL Pyruvate Kinase (Sigma), 50 μM phosphoenolpyruvate (Sigma), 5 u/mL Lactate deshydrogenase (Sigma) and 3 μM NADH (Sigma) in assay buffer. Fluorescence intensity of NADH (λex=360 nm, λem=520 nm) is immediately measured kinetically by a Fluostar Optima (BMG). Inhibition percentages are derived from fitted initial velocities. For IC50 determinations, the inhibitor is added at 6 to 10 different concentrations, and the related inhibitions are fitted to a classical langmuir equilibrium model using XLFIT (IDBS). FIG. 2 represents the data obtained using this method.
The capacity of compounds to inhibit DltA enzymatic activity was assessed using the DltA HTS assays described in method 1.

For COc1ccc(-c2cc(-c3cnc4c(NCCCO)nc5cc(C(F)(F)F)ccc5n34)[nH]n2)cc1 [Example 31, 3-({1-[1H-pyrazol-3-(4-methoxyphenyl)-5-yl]-7-(trifluoromethyl)imidazo[1,2-a]quinoxalin-4-yl}amino)propan-1-ol], which IC50 is on record?
Its IC50 is 0.79 µM.

Same assay, conditions: IC50 (μM), Table 1; DltA inhibition, HTS assays of method 1

For CS(=O)(=O)Nc1ccc(-c2cnc3c(NCCCO)nc4cc(C(F)(F)F)ccc4n23)cc1 [Example 23, N-{4-[4-(3-Hydroxy-propylamino)-7-trifluoromethyl-imidazo[1,2-a]quinoxalin-1-yl]phenyl}-methanesulfonamide Sodium salt], which IC50 is on record?
Its IC50 is 0.21 µM.

Same assay, conditions: Table 1; DltA inhibition, HTS assays of method 1; read-out: IC50

How did the IC50 turn out when OCCCNc1nc2cc(C(F)(F)F)ccc2n2ccnc12 [Example 1, 3-{[7-(trifluoromethyl)imidazo[1,2-a]quinoxalin-4-yl]amino}propan-1-ol] was run?
The IC50 was 3.2 µM.

OCCCNc1nc2cc(C(F)(F)F)ccc2n2c(Br)cnc12 [Example 2, 3-{[1-bromo-7-(trifluoromethyl)imidazo[1,2-a]quinoxalin-4 yl]amino}propan-1-ol] was tested. Which IC50 did it give?
Its IC50 is 2.5 µM.

Which IC50 does the source give for OCCCNc1nc2cc(C(F)(F)F)ccc2n2c(I)cnc12 [Example 3, 3-{[1-iodo-7-(trifluoromethyl)imidazo[1,2-a]quinoxalin-4-yl]amino}propan-1-ol] here?
The IC50 was 0.62 µM.

With OCCCNc1nc2cc(Br)ccc2n2ccnc12 [Example 4, 3-(7-bromo-imidazo[1,2-a]quinoxalin-4-ylamino)-propan-1-ol] as the compound, how does the IC50 read?
The IC50 was 6.6 µM.

For OCCCNc1nc2cc(-c3ccccc3C(F)(F)F)ccc2n2ccnc12 [Example 5, 3-({7-[2-(trifluoromethyl)phenyl]imidazo[1,2-a]quinoxalin-4-yl}amino)propan-1-ol], which IC50 is on record?
Its IC50 is 0.56 µM.

With CCSc1ccc2c(c1)nc(NCCCO)c1nccn12 [Example 6] as the compound, how does the IC50 read?
The IC50 was 6.5 µM.

Which IC50 does the source give for OCCCNc1nc2cc(OC(F)(F)F)ccc2n2ccnc12 [Example 7, 3-{[7-(trifluoromethoxy)imidazo[1,2-a]quinoxalin-4-yl]amino}propan-1-ol] here?
The IC50 was 2.2 µM.

CC(=O)Nc1cccc(-c2cnc3c(NCCCO)nc4cc(C(F)(F)F)ccc4n23)c1 [Example 8, N-{3-[4-(3-Hydroxy-propylamino)-7-trifluoromethyl-imidazo[1,2-a]quinoxalin-1-yl]-phenyl}-acetamide] was tested. Which IC50 did it give?
The IC50 was 0.12 µM.

NS(=O)(=O)c1cccc(-c2cnc3c(NCCCO)nc4cc(C(F)(F)F)ccc4n23)c1 [Example 9, 3-{4-[(3-hydroxypropyl)amino]-7-(trifluoromethyl)imidazo[1,2-a]quinoxalin-1-yl}benzenesulfonamide] was tested. Which IC50 did it give?
The IC50 was 0.69 µM.

For COc1ccc(-c2cnc3c(NCCCO)nc4cc(C(F)(F)F)ccc4n23)cc1 [Example 10, 3-{[1-(4-methoxyphenyl)-7-(trifluoromethyl)imidazo[1,2-a]quinoxalin-4-yl]amino}propan-1-ol], which IC50 is on record?
Its IC50 is 0.23 µM.

OCCCNc1nc2cc(C(F)(F)F)ccc2n2c(-c3ccccc3)cnc12 [Example 11, 3-{[1-phenyl-7-(trifluoromethyl)imidazo[1,2-a]quinoxalin-4-yl]amino}propan-1-ol] was tested. Which IC50 did it give?
Its IC50 is 0.73 µM.

How did the IC50 turn out when CS(=O)(=O)Nc1ccc(-c2cnc3c(NCCCO)nc4cc(C(F)(F)F)ccc4n23)cc1 [Example 12, N-{4-[4-(3-Hydroxy-propylamino)-7-trifluoromethyl-imidazo[1,2-a]quinoxalin-1-yl]-phenyl}-methanesulfonamide] was run?
Its IC50 is 0.087 µM.

With COc1ccc(-c2cnc3c(NCCCO)nc4cc(C(F)(F)F)ccc4n23)cn1 [Example 13, 3-{[1-(6-methoxypyridin-3-yl)-7-(trifluoromethyl)imidazo[1,2-a]quinoxalin-4-yl]amino}propan-1-ol] as the compound, how does the IC50 read?
The IC50 was 0.48 µM.

With OCCCNc1nc2cc(C(F)(F)F)ccc2n2c(-c3ccc(N4CCOCC4)cc3)cnc12 [Example 14, 3-{[1-(4-N-morpholinophenyl)-7-(trifluoromethyl)imidazo[1,2-a]quinoxalin-4-yl]amino}propan-1-ol] as the compound, how does the IC50 read?
The IC50 was 0.46 µM.

With CNC(=O)c1ccc(-c2cnc3c(NCCCO)nc4cc(C(F)(F)F)ccc4n23)cc1 [Example 15, 4-{4-[(3-hydroxypropyl)amino]-7-(trifluoromethyl)imidazo[1,2-a]quinoxalin-1-yl}-N-methylbenzamide] as the compound, how does the IC50 read?
Its IC50 is 0.2 µM.

Which IC50 does the source give for OCCCNc1nc2cc(C(F)(F)F)ccc2n2c(-c3cn[nH]c3)cnc12 [Example 17, 3-{[1-(1H-pyrazol-4-yl)-7-(trifluoromethyl)imidazo[1,2-a]quinoxalin-4-yl]amino}propan-1-ol] here?
Its IC50 is 0.51 µM.

Which IC50 does the source give for NCc1ccc(-c2cnc3c(NCCCO)nc4cc(C(F)(F)F)ccc4n23)cc1 [Example 18, 3-({1-[4-(aminomethyl)phenyl]-7-(trifluoromethyl)imidazo[1,2-a]quinoxalin-4-yl}amino)propan-1-ol] here?
The IC50 was 0.24 µM.

Nc1ncc(-c2cnc3c(NCCCO)nc4cc(C(F)(F)F)ccc4n23)cn1 [Example 20, 3-{[1-(2-aminopyrimidin-5-yl)-7-(trifluoromethyl)imidazo[1,2-a]quinoxalin-4-yl]amino}propan-1-ol] was tested. Which IC50 did it give?
Its IC50 is 0.86 µM.

How did the IC50 turn out when COc1cc(-c2cnc3c(NCCCO)nc4cc(C(F)(F)F)ccc4n23)ccc1N [Example 21] was run?
Its IC50 is 0.27 µM.

For C=Cc1cnc2c(NCCCO)nc3cc(C(F)(F)F)ccc3n12 [Example 22, 3-{[7-(trifluoromethyl)-1-vinylimidazo[1,2-a]quinoxalin-4-yl]amino}propan-1-ol], which IC50 is on record?
Its IC50 is 1 µM.

How did the IC50 turn out when COc1ccc(-n2cnc3c(NCCCO)nc4cc(C(F)(F)F)ccc4c32)cc1 [Example 24, 3-[1-(4-Methoxy-phenyl)-7-trifluoromethyl-1H-imidazo[4,5-c]quinolin-4-ylamino]-propan-1-ol] was run?
Its IC50 is 3.9 µM.

How did the IC50 turn out when Cn1cnc2c(NCCCO)nc3cc(C(F)(F)F)ccc3c21 [Example 25, 3-{[1-methyl-7-(trifluoromethyl)-1H-imidazo[4,5-c]quinolin-4-yl]amino}propan-1-ol] was run?
Its IC50 is 17 µM.

How did the IC50 turn out when OCCCNc1nc2cc(C(F)(F)F)ccc2c2c1ncn2[C@H]1CC[C@H](O)CC1 [Example 26, 4-[4-(3-hydroxy-propylamino)-7-trifluoromethyl-imidazo[4,5-c]quinolin-1-yl]-cyclohexanol] was run?
The IC50 was 20 µM.

For OCCCNc1nc2cc(C(F)(F)F)ccc2n2c(C3=CCNCC3)cnc12 [Example 27, 3-[1-(1,2,3,6-tetrahydro-pyridin-4-yl)-7-trifluoromethyl-imidazo[1,2-a]quinoxalin-4-ylamino]-propan-1-ol], which IC50 is on record?
The IC50 was 2.6 µM.

With CC(=O)N1CC=C(c2cnc3c(NCCCO)nc4cc(C(F)(F)F)ccc4n23)CC1 [Example 28, 1-{4-[4-(3-hydroxy-propylamino)-7-trifluoromethyl-imidazo[1,2-a]quinoxalin-1-yl]-3,6-dihydro-2H-pyridin-1-yl}-ethanone] as the compound, how does the IC50 read?
The IC50 was 0.65 µM.

How did the IC50 turn out when CS(=O)(=O)N1CC=C(c2cnc3c(NCCCO)nc4cc(C(F)(F)F)ccc4n23)CC1 [Example 29, 3-[1-(1-methanesulfonyl-1,2,3,6-tetrahydro-pyridin-4-yl)-7-trifluoromethyl-imidazo[1,2-a]quinoxalin-4-ylamino]-propan-ol] was run?
The IC50 was 0.41 µM.

Source: patent US8513250B2 (Laboratoire Biodim, priority 2007, dated 2013)
